Reference: patent publication US8193369B2, “Benzimidazole cannabinoid agonists” (Janssen Pharmaceutica NV, priority 2007, dated 2012)

Target: T1, human CB2 (hCB2) receptor (Homo sapiens, UniProt P34972)
T1 construct: expressed in transfected cells; host or cells: CHO-K1
Assay: Inhibition of forskolin-activated cAMP production upon activation of human CB2 receptor (HTRF)
Assay type: cell-based
Conditions: CHO-K1 cells stably transfected with hCB2; 15 μM forskolin; pEC50=-log(EC50); relative to WIN55212-2
Experimental: D. Pharmacological Examples D.1 Inhibition of cAMP in Response to Activation of the Human CB2 Receptors
Functional activity of the test compounds was assessed by measuring their potency to inhibit forskolin-activated cAMP production upon activation of human CB2 (hCB2) receptor through homogenous time resolved fluorescence (HTRF) assays.
CHO-K1 cells stably transfected with hCB2 were grown up to 80-90% confluence in T175 Falcon flasks in DMEM/NUT MIX F-12 culture medium complemented with 2% Solution A (5.10^6 IU/l penicillin G, 5 g/l streptomycin sulphate, 5.5 g/l pyruvate, 14.6 g/l L-glutamine, 1M NaOH) and 10% foetal calf serum. Before the experiments, medium was removed, cells were washed with PBS/EDTA (140 mM NaCl, 1 mM Na2-EDTA, 8 mM Na2HPO4.2H2O, 8.5 mM KH2PO4, 2.7 mM KCl, 21 mM glucose), resuspended in stimulation buffer (HBSS 1×, IBMX 1 mM, Hepes 5 mM, MgCl2 10 mM, BSA 0.1%, pH 7.4). Cells were diluted to a concentration of 10^6 cells/ml for hCB2 experiments. Assays were performed using the cAMP Dynamic HTRF kit (CIS bio international, France) according to the recommendations of the manufacturer.
For CB2, each well of a 384 flat bottom black polystyrene assay plate (Costar) was filled with 10 μl stimulation buffer containing 15 μM forskolin and either test compound (in 3% DMSO), 3% DMSO or 10 μM Win55212-2 (in 3% DMSO). Then, 20 μl of the diluted hCB2-CHO-K1 cells was added (20,000 cells/well). After 30 minutes incubation in dark at room temperature, 10 μl cAMP-XL665 and 10 μl anti-cAMP cryptate (both at a final dilution of 1/100) was added to the cells.
After equilibration of the reaction mixtures for 1 to 24 hours in dark at room temperature, fluorescence was measured at 665 nm and 620 nm using a Discovery microplate fluorescence counter (Perkin Elmer), and the signal ratio of 665 nm/620 nm was calculated. The signal ratios of the test compounds were expressed relative to the signal ratios of the DMSO control (maximal signal ratio, no inhibition of cAMP) and WIN55212-2 for hCB2, respectively (minimal signal ratio, maximal inhibition of cAMP). From the dose response curves generated for each test compound, the dose at which 50% of the maximal inhibition of cAMP level is observed (EC50, expressed in the Table as pEC50=−log (EC50) values) and the level of inhibition reached with 10 μM of the test compound compared to WIN55212-2 (for hCB2) was calculated.

T1 sequence (P34972 whole entry): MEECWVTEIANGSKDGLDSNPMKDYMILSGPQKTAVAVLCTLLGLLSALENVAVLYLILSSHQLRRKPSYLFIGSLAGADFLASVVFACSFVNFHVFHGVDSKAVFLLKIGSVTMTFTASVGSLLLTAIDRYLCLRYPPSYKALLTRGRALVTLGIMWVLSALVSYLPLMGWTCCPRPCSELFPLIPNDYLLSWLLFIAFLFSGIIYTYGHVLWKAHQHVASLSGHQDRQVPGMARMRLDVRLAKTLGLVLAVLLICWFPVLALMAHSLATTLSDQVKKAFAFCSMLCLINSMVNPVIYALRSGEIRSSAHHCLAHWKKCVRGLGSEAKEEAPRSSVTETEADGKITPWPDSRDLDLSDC

Compared with `CC(=O)N1CCC(Cn2c(C(C)(C)C)nc3cc(S(=O)(=O)Cc4ccccc4)ccc32)CC1` [Co. No. 73], `COc1ccc(CS(=O)(=O)c2ccc3c(c2)nc(C(C)(C)C)n3CC2CCN(C(C)=O)CC2)cc1` [compound 12] is 68-fold higher in EC50: 2.34 nM for the first, 158 nM for the second.

First: CCS(=O)(=O)c1ccc2c(c1)nc(C(C)(C)C)n2CC1CCN(C(C)=O)CC1 [compound 1]
Second: CC(=O)N1CCC(Cn2c(C(C)(C)C)nc3cc(S(=O)(=O)C(C)C)ccc32)CC1 [compound 64]
The EC50 of the first is 1.5-fold lower: 8.51 nM for the first, 12.9 nM for the second.

`CC(=O)N1CCC(Cn2c(C(C)(C)C)nc3cc(S(=O)(=O)CCCC(F)(F)F)ccc32)CC1` [compound 3] and `CC(=O)N1CCC(Cn2c(C(C)(C)C)nc3cc(S(=O)(=O)CCCC#N)ccc32)CC1` [compound 10] are within 1.5-fold of each other in EC50: 15.5 nM for the first, 21.9 nM for the second.

Compared with `COc1ccc(CSc2ccc3c(c2)nc(C(C)(C)C)n3CC2CCN(C(C)=O)CC2)cc1` [compound 11], `CC(=O)N1CCC(Cn2c(C(C)(C)C)nc3cc(SCc4ccc(F)cc4)ccc32)CC1` [compound 17] is 26-fold lower in EC50: 20.4 nM for the first, 0.794 nM for the second.

`CC(=O)N1CCC(Cn2c(C(C)(C)C)nc3cc(SCCCO)ccc32)CC1` [compound 13] and `CC(=O)N1CCC(Cn2c(C(C)(C)C)nc3cc(SCCC#N)ccc32)CC1` [compound 15] are within 1.5-fold of each other in EC50: 8.71 nM for the first, 10 nM for the second.

`CC(=O)N1CCC(Cn2c(C(C)(C)C)nc3cc(Sc4ccc(C#N)cc4)ccc32)CC1` [compound 18] and `CC(=O)N1CCC(Cn2c(C(C)(C)C)nc3cc(Sc4ccc(F)cc4)ccc32)CC1` [compound 58] are within 1.5-fold of each other in EC50: 6.31 nM for the first, 8.51 nM for the second.

`CC(C)(C)c1nc2cc(SCCCO)ccc2n1CC1CCN(C=O)CC1` [compound 21] and `COCCSc1ccc2c(c1)nc(C(C)(C)C)n2CC1CCN(C=O)CC1` [compound 22] are within 1.5-fold of each other in EC50: 5.37 nM for the first, 7.08 nM for the second.

First: CC(=O)N1CCC(Cn2c(C(C)(C)C)nc3cc(S(=O)(=O)c4ccc(C#N)cc4)ccc32)CC1 [compound 23]
Second: CC(=O)N1CCC(Cn2c(C(C)(C)C)nc3cc(S(=O)(=O)c4ccc(F)c(C#N)c4)ccc32)CC1 [compound 105]
The EC50 of the first is 2.9-fold higher: 3.72 nM for the first, roughly 1.29 nM for the second. The second is the more potent here.

First: CC(C)S(=O)(=O)c1ccc2c(c1)nc(C(C)(C)C)n2CC1CCS(=O)(=O)CC1 [compound 30]
Second: CC(=O)N1CCC(Cn2c(C(C)(C)C)nc3cc(S(=O)(=O)C(C)C#N)ccc32)CC1 (centres unmarked) [compound 39]
The EC50 of the first is 7.1-fold higher: 50.1 nM for the first, 7.08 nM for the second. The second is the more potent here.

`CC(=O)N1CCC(Cn2c(C(C)(C)C)nc3cc(SC4CCCC4)ccc32)CC1` [compound 32] and `CC(=O)N1CCC(Cn2c(C(C)(C)C)nc3cc(SCC4CCC4)ccc32)CC1` [compound 41] are within 1.5-fold of each other in EC50: 1.29 nM for the first, 1.17 nM for the second.

Compared with `CC(=O)N1CCC(Cn2c(C(C)(C)C)nc3cc(Sc4ccncc4)ccc32)CC1` [compound 33], `CC(=O)N1CCC(Cn2c(C(C)(C)C)nc3cc(Sc4cccnc4)ccc32)CC1` [compound 54] is 2-fold lower in EC50: 4.47 nM for the first, 2.29 nM for the second.

Going from `CC(C)(C)c1nc2cc(SCC3CC3)ccc2n1CC1CCN(C=O)CC1` [compound 37] to `CC(=O)N1CCC(Cn2c(C(C)(C)C)nc3cc(SCc4ccccc4)ccc32)CC1` [compound 72], the EC50 rises from 1.32 nM to 12.9 nM (9.8-fold).

First: CC(=O)N1CCC(Cn2c(C(C)(C)C)nc3cc(S(=O)(=O)C(C)(C)C#N)ccc32)CC1 [compound 42]
Second: CC(=O)N1CCC(Cn2c(C(C)(C)C)nc3cc(S(=O)(=O)C(C)(C)c4ccccc4)ccc32)CC1 [compound 55]
The EC50 of the first is 17-fold lower: 5.5 nM for the first, 93.3 nM for the second. The first is the more potent here.

Going from `CCS(=O)(=O)c1ccc2c(c1)nc(C(C)C)n2CC1CCN(C(C)=O)CC1` [compound 47] to `CCC(CC)S(=O)(=O)c1ccc2c(c1)nc(C(C)(C)C)n2CC1CCN(C(C)=O)CC1` [compound 61], the EC50 falls from 955 nM to 2.51 nM (380-fold).

First: CC(=O)N1CCC(Cn2c(C(C)(C)C)nc3cc(Sc4ccccn4)ccc32)CC1 [compound 50]
Second: CC(=O)N1CCC(Cn2c(C(C)(C)C)nc3cc(Sc4ccccc4Cl)ccc32)CC1 [compound 70]
The EC50 of the first is 89-fold higher: 7.76 nM for the first, 0.0871 nM for the second. The second is the more potent here.

Compared with `CCC(CC)Sc1ccc2c(c1)nc(C(C)(C)C)n2CC1CCN(C(C)=O)CC1` [compound 51], `CCCC(CCC)Sc1ccc2c(c1)nc(C(C)(C)C)n2CC1CCN(C(C)=O)CC1` [compound 65] is 2.2-fold higher in EC50: 0.794 nM for the first, 1.74 nM for the second.

`CC(=O)N1CCC(Cn2c(C(C)(C)C)nc3cc(SCCc4ccc(F)cc4)ccc32)CC1` [compound 52] and `CC(=O)N1CCC(Cn2c(C(C)(C)C)nc3cc(S(=O)(=O)CCc4ccc(F)cc4)ccc32)CC1` [compound 56] are within 1.5-fold of each other in EC50: 3.98 nM for the first, 3.39 nM for the second.

First: CC(=O)N1CCC(Cn2c(C(C)(C)C)nc3cc(Sc4c(Cl)cccc4Cl)ccc32)CC1 [compound 57]
Second: CC(=O)N1CCC(Cn2c(C(C)(C)C)nc3cc(Sc4cccc(Cl)c4)ccc32)CC1 [compound 89]
The EC50 of the first is 14-fold higher: 1.58 nM for the first, roughly 0.11 nM for the second.

Compared with `CC(=O)N1CCC(Cn2c(C(C)(C)C)nc3cc(S(=O)(=O)c4cccnc4)ccc32)CC1` [compound 62], `CC(=O)N1CCC(Cn2c(C(C)(C)C)nc3cc(S(=O)(=O)c4ccc[n+]([O-])c4)ccc32)CC1` [compound 63] is 3-fold higher in EC50: 5.25 nM for the first, 15.5 nM for the second. The first is the more potent here.

Compared with `CC(=O)N1CCC(Cn2c(C(C)(C)C)nc3cc(Sc4cccs4)ccc32)CC1` [compound 66], `CC(=O)N1CCC(Cn2c(C(C)(C)C)nc3cc(Sc4ccccc4C#N)ccc32)CC1` [compound 93] is 9.3-fold lower in EC50: 2.24 nM for the first, roughly 0.24 nM for the second. The second is the more potent here.

`CC(=O)N1CCC(Cn2c(C(C)(C)C)nc3cc(S(=O)(=O)Cc4ccc([N+](=O)[O-])cc4)ccc32)CC1` [compound 69] and `CC(=O)Nc1ccc(CS(=O)(=O)c2ccc3c(c2)nc(C(C)(C)C)n3CC2CCN(C(C)=O)CC2)cc1` [compound 79] are the same in EC50: 5.89 nM for the first, 5.89 nM for the second.

Going from `CC(=O)N1CCC(Cn2c(C(C)(C)C)nc3cc(S(=O)(=O)Cc4ccc(N(C)C(C)=O)cc4)ccc32)CC1` [compound 80] to `CC(=O)N1CCC(Cn2c(C(C)(C)C)nc3cc(S(=O)(=O)c4cccc(N(C)C)c4)ccc32)CC1` [compound 98], the EC50 falls from roughly 46.8 nM to 4.57 nM (10-fold).

Going from `COCCCOc1cccc(S(=O)(=O)c2ccc3c(c2)nc(C(C)(C)C)n3CC2CCN(C(C)=O)CC2)c1` [compound 86] to `CC(=O)N1CCC(Cn2c(C(C)(C)C)nc3cc(S(=O)(=O)c4cccc(OCCCC#N)c4)ccc32)CC1` [compound 96], the EC50 falls from 5.37 nM to 3.55 nM (1.5-fold). The second is the more potent here.

Compared with `CC(=O)N1CCC(Cn2c(C(C)(C)C)nc3cc(Sc4ccc(C(F)(F)F)cc4)ccc32)CC1` [compound 87], `CC(=O)N1CCC(Cn2c(C(C)(C)C)nc3cc(Sc4cccc(C(F)(F)F)c4)ccc32)CC1` [compound 91] is 12-fold lower in EC50: roughly 10 nM for the first, roughly 0.832 nM for the second.

First: CC(=O)N1CCC(Cn2c(C(C)(C)C)nc3cc(S(=O)(=O)c4cccc(C(F)(F)F)c4)ccc32)CC1 [compound 92]
Second: CC(=O)N1CCC(Cn2c(C(C)(C)C)nc3cc(S(=O)(=O)c4ccc(C(F)(F)F)cc4Cl)ccc32)CC1 [compound 107]
The EC50 of the first is 1.8-fold lower: 4.07 nM for the first, roughly 7.41 nM for the second.

`CC(=O)N1CCC(Cn2c(C(C)(C)C)nc3cc(S(=O)(=O)c4ccccc4C#N)ccc32)CC1` [compound 94] and `CC(=O)N1CCC(Cn2c(C(C)(C)C)nc3cc(S(=O)(=O)c4ccoc4)ccc32)CC1` [compound 103] are within 1.5-fold of each other in EC50: roughly 3.31 nM for the first, roughly 3.8 nM for the second.

Going from `CC(=O)N1CCC(Cn2c(C(C)(C)C)nc3cc(Sc4cccc(OCCCC#N)c4)ccc32)CC1` [compound 95] to `CC(=O)N1CCC(Cn2c(C(C)(C)C)nc3cc(Sc4cccc(N(C)C)c4)ccc32)CC1` [compound 97], the EC50 rises from roughly 2.69 nM to 4.79 nM (1.8-fold).

`CC(=O)N1CCC(Cn2c(C(C)(C)C)nc3cc(S(=O)(=O)c4cccc(OC(C)C)c4)ccc32)CC1` [compound 100] and `COc1cccc(OC)c1S(=O)(=O)c1ccc2c(c1)nc(C(C)(C)C)n2CC1CCN(C(C)=O)CC1` [compound 102] are within 1.5-fold of each other in EC50: 2.34 nM for the first, roughly 3.47 nM for the second.

Going from `COc1cccc(OC)c1Sc1ccc2c(c1)nc(C(C)(C)C)n2CC1CCN(C(C)=O)CC1` [compound 101] to `COc1ccc(S(=O)(=O)c2ccc3c(c2)nc(C(C)(C)C)n3CC2CCN(C(C)=O)CC2)c(OC)c1` [compound 106], the EC50 rises from roughly 0.513 nM to roughly 22.9 nM (45-fold). The first is the more potent here.

Work on `CC(=O)N1CCC(Cn2c(C(C)(C)C)nc3cc(S(=O)(=O)c4ccc(OC(F)(F)F)cc4)ccc32)CC1` [compound 104] yielded an EC50 of roughly 23.4 nM.

First: CC(=O)N1CCC(Cn2c(C(C)(C)C)nc3cc(S(=O)(=O)CCCO)ccc32)CC1 [compound 19]
Second: COCCS(=O)(=O)c1ccc2c(c1)nc(C(C)(C)C)n2CC1CCN(C(C)=O)CC1 [compound 20]
The “CB2 pEC50” value of the first is lower: 6.84 for the first, 7.59 for the second.

In the case of `CC(=O)N1CCC(Cn2c(C(C)(C)C)nc3cc(S(=O)(=O)C4CCCC4)ccc32)CC1` [compound 35], the “CB2 pEC50” value is reported as 8.49.
